Reference: patent US20240000872A1, “NOVEL BACTERIOPHAGE THAT LYSES ACINETOBACTER GENUS BACTERIA HAVING RESISTANCE TO ANTIBIOTICS” (priority 2020, published 2024)

Test system: Acinetobacter baumannii strains
Test: Antibiotic susceptibility test (CLSI disk diffusion test method, read per CLSI 2016); as to antibiotic susceptibility S/I/R: key: ‘S’ means susceptible; ‘I’ means intermediate; ‘R’ means resistant; as to susceptibility category (S/I/R): key: ‘S’ means susceptible; ‘I’ means intermediate; ‘R’ means resistant
Format: cell-based
Set-up: antibiotic susceptibility test value / susceptibility test value (number given before S/I/R) / antibiotic susceptibility value: unit not given here

## ampicillin-sulbactam
Host strain YMC16/01/R123
  antibiotic susceptibility value: 32
  susceptibility category (S/I/R): R
  susceptibility test value (number given before S/I/R): 32
Host strain YMC16/01/R198
  antibiotic susceptibility S/I/R: S
  antibiotic susceptibility value: 8
  susceptibility category (S/I/R): S
  susceptibility test value (number given before S/I/R): 8
Host strain YMC16/01/R353
  antibiotic susceptibility value: 16
  susceptibility category (S/I/R): I
  susceptibility test value (number given before S/I/R): 16
Host strain YMC16/01/R380
  antibiotic susceptibility S/I/R: R
  antibiotic susceptibility value: 32
  susceptibility category (S/I/R): R
  susceptibility test value (number given before S/I/R): 32
Host strain YMC16/01/R397
  antibiotic susceptibility S/I/R: R
  antibiotic susceptibility value: 32
  susceptibility category (S/I/R): R
  susceptibility test value (number given before S/I/R): 32
Host strain YMC16/01/R405
  antibiotic susceptibility value: 16
  susceptibility category (S/I/R): I
  susceptibility test value (number given before S/I/R): 16
Host strain YMC16/03/R4461
  antibiotic susceptibility S/I/R: S
  antibiotic susceptibility value: 4
  susceptibility category (S/I/R): S
  susceptibility test value (number given before S/I/R): 4
Host strain YMC16/05/R2210
  antibiotic susceptibility value: 16
  susceptibility category (S/I/R): I
  susceptibility test value (number given before S/I/R): 16
Host strain YMC16/07/R2512
  antibiotic susceptibility value: 16
  susceptibility category (S/I/R): I
  susceptibility test value (number given before S/I/R): 16
Host strain YMC16/09/R2471
  antibiotic susceptibility S/I/R: R
  antibiotic susceptibility value: 32
  susceptibility category (S/I/R): R
  susceptibility test value (number given before S/I/R): 32
Host strain YMC16/10/R2537
  antibiotic susceptibility value: 16
  susceptibility category (S/I/R): I
  susceptibility test value (number given before S/I/R): 16
Host strain YMC16/12/B11422
  antibiotic susceptibility S/I/R: R
  antibiotic susceptibility value: 32
  susceptibility category (S/I/R): R
  susceptibility test value (number given before S/I/R): 32
Host strain YMC16/12/B11449
  antibiotic susceptibility S/I/R: R
  antibiotic susceptibility value: 32
  susceptibility category (S/I/R): R
  susceptibility test value (number given before S/I/R): 32
Host strain YMC16/12/B13325
  antibiotic susceptibility value: 16
  susceptibility category (S/I/R): I
  susceptibility test value (number given before S/I/R): 16
Host strain YMC16/12/P503
  antibiotic susceptibility S/I/R: R
  antibiotic susceptibility value: 32
  susceptibility category (S/I/R): R
  susceptibility test value (number given before S/I/R): 32
Host strain YMC16/12/R4637
  antibiotic susceptibility S/I/R: R
  antibiotic susceptibility value: 32
  susceptibility category (S/I/R): R
  susceptibility test value (number given before S/I/R): 32
Host strain YMC17/01/B8053
  antibiotic susceptibility S/I/R: S
  antibiotic susceptibility value: 8
  susceptibility category (S/I/R): S
  susceptibility test value (number given before S/I/R): 8
Host strain YMC17/01/B10087
  antibiotic susceptibility value: 16
  susceptibility category (S/I/R): I
  susceptibility test value (number given before S/I/R): 16
Host strain YMC17/01/B12075
  antibiotic susceptibility value: 16
  susceptibility category (S/I/R): I
  susceptibility test value (number given before S/I/R): 16
Host strain YMC17/01/B13454
  antibiotic susceptibility S/I/R: R
  antibiotic susceptibility value: 32
  susceptibility category (S/I/R): R
  susceptibility test value (number given before S/I/R): 32
Host strain YMC17/01/P518
  antibiotic susceptibility value: 16
  susceptibility category (S/I/R): I
  susceptibility test value (number given before S/I/R): 16
Host strain YMC17/01/R2812
  antibiotic susceptibility S/I/R: R
  antibiotic susceptibility value: 32
  susceptibility category (S/I/R): R
  susceptibility test value (number given before S/I/R): 32
Host strain YMC17/02/B14
  antibiotic susceptibility S/I/R: R
  antibiotic susceptibility value: 32
  susceptibility category (S/I/R): R
  susceptibility test value (number given before S/I/R): 32
Host strain YMC17/02/B87
  antibiotic susceptibility value: 16
  susceptibility category (S/I/R): I
  susceptibility test value (number given before S/I/R): 16
Host strain YMC17/02/B721
  antibiotic susceptibility S/I/R: R
  antibiotic susceptibility value: 32
  susceptibility category (S/I/R): R
  susceptibility test value (number given before S/I/R): 32
Host strain YMC17/02/B4039
  antibiotic susceptibility S/I/R: R
  antibiotic susceptibility value: 32
  susceptibility category (S/I/R): R
  susceptibility test value (number given before S/I/R): 32
Host strain YMC17/02/B4520
  antibiotic susceptibility S/I/R: R
  antibiotic susceptibility value: 32
  susceptibility category (S/I/R): R
  susceptibility test value (number given before S/I/R): 32
Host strain YMC17/02/B4864
  antibiotic susceptibility S/I/R: S
  antibiotic susceptibility value: 2
  susceptibility category (S/I/R): S
  susceptibility test value (number given before S/I/R): 2
Host strain YMC17/02/B8414
  antibiotic susceptibility value: 16
  susceptibility category (S/I/R): I
  susceptibility test value (number given before S/I/R): 16
Host strain YMC17/02/P523
  antibiotic susceptibility value: 16
  susceptibility category (S/I/R): I
  susceptibility test value (number given before S/I/R): 16
Host strain YMC17/02/R541
  antibiotic susceptibility S/I/R: R
  antibiotic susceptibility value: 32
  susceptibility category (S/I/R): R
  susceptibility test value (number given before S/I/R): 32
Host strain YMC17/02/R2392
  antibiotic susceptibility S/I/R: R
  antibiotic susceptibility value: 32
  susceptibility category (S/I/R): R
  susceptibility test value (number given before S/I/R): 32
Host strain YMC17/03/B4730
  antibiotic susceptibility value: 16
  susceptibility category (S/I/R): I
  susceptibility test value (number given before S/I/R): 16
Host strain YMC17/03/B5000
  antibiotic susceptibility S/I/R: R
  antibiotic susceptibility value: 32
  susceptibility category (S/I/R): R
  susceptibility test value (number given before S/I/R): 32
Host strain YMC17/03/P971
  antibiotic susceptibility S/I/R: S
  antibiotic susceptibility value: 8
  susceptibility category (S/I/R): S
  susceptibility test value (number given before S/I/R): 8
Host strain YMC17/03/R348
  antibiotic susceptibility value: 16
  susceptibility category (S/I/R): I
  susceptibility test value (number given before S/I/R): 16
Host strain YMC17/03/R585
  antibiotic susceptibility S/I/R: R
  antibiotic susceptibility value: 32
  susceptibility category (S/I/R): R
  susceptibility test value (number given before S/I/R): 32
Host strain YMC17/03/R1888
  antibiotic susceptibility S/I/R: S
  antibiotic susceptibility value: 8
  susceptibility category (S/I/R): S
  susceptibility test value (number given before S/I/R): 8
Host strain YMC17/03/R3279
  antibiotic susceptibility value: 16
  susceptibility category (S/I/R): I
  susceptibility test value (number given before S/I/R): 16
Host strain YMC17/03/R4077
  antibiotic susceptibility value: 16
  susceptibility category (S/I/R): I
  susceptibility test value (number given before S/I/R): 16
Host strain YMC17/03/R4607
  antibiotic susceptibility value: 16
  susceptibility category (S/I/R): I
  susceptibility test value (number given before S/I/R): 16
Host strain YMC17/04/R488
  antibiotic susceptibility value: 16
  susceptibility category (S/I/R): I
  susceptibility test value (number given before S/I/R): 16
Host strain YMC17/04/R640
  antibiotic susceptibility value: 16
  susceptibility category (S/I/R): I
  susceptibility test value (number given before S/I/R): 16
Host strain YMC/17/05/R1095
  antibiotic susceptibility value: 16
  susceptibility category (S/I/R): I
  susceptibility test value (number given before S/I/R): 16
